Test results as given in EPA's ToxRefDB 2.

Legend:
[1] = system: rat; conditions: Subchronic oral toxicity in rodents, fischer, Gavage/Intubation, dose end: 13 week, group: systemic
[2] = system: mouse; conditions: Subchronic oral toxicity in rodents, b6c3f1, Gavage/Intubation, dose end: 13 week, group: systemic
[3] = system: rat; conditions: Prenatal developmental toxicity study, sprague dawley, Oral, Gavage/Intubation, dose end: 15 GD
[4] = system: mouse; conditions: Carcinogenicity; cd1; Oral; Feed; dose end: 18 month; group: systemic; systemic / pathology microscopic / adrenal gland / eosinophilic focus + systemic / pathology microscopic / liver / hypertrophy + systemic / …
[5] = system: dog; conditions: Chronic toxicity, beagle, Oral, Feed, dose end: 1 year, group: systemic
[6] = system: mouse; conditions: Subchronic oral toxicity in rodents, cd1, Feed, dose end: 3 month, group: systemic
[7] = system: rabbit; conditions: Prenatal developmental toxicity study, new zealand white, Oral, Gavage/Intubation, dose end: 19 GD
[8] = system: rat; conditions: Combined chronic toxicity/carcinogenicity; sprague dawley; Oral; Feed; dose end: 2 year; group: systemic; systemic / hematology / lymphocyte / lymphocyte + systemic / hematology / neutrophils / neutrophils + systemic / in life observation / body …
[9] = system: rat; conditions: Combined chronic toxicity/carcinogenicity, sprague dawley, Oral, Feed, dose end: 2 year, group: systemic
[10] = system: dog; conditions: Chronic toxicity, beagle, Oral, Feed, dose end: 53 week, group: systemic
[11] = system: rat; conditions: Multigenerational reproductive toxicity study, sprague dawley, Oral, Feed, dose end: 2 generation
[12] = system: rat; conditions: Subchronic oral toxicity in rodents, sprague dawley, Feed, dose end: 3 month, group: systemic
[13] = system: mouse; conditions: Combined chronic toxicity/carcinogenicity, cd1, Oral, Feed, dose end: 24 month, group: systemic
[14] = system: dog; conditions: Subchronic oral toxicity in nonrodent, beagle, Feed, dose end: 13 week, group: systemic
[15] = system: rat; conditions: Subchronic oral toxicity in rodents, sprague dawley, Feed, dose end: 90 day, group: systemic
[16] = system: rat; conditions: Multigenerational reproductive toxicity study, sprague dawley, Oral, Feed, dose end: 2 generation; remark: listed apart in the source
[17] = system: dog; conditions: Chronic toxicity; beagle; Oral; Feed; dose end: 52 week; group: systemic; systemic / hematology / nucleated red blood cell (nrbc) / nucleated red blood cell (nrbc) + systemic / in life observation / clinical signs…
[18] = systemic / clinical chemistry / albumin / albumin + systemic / clinical chemistry / protein / protein + systemic / hematology / mean …
[19] = systemic / in life observation / clinical signs / lacrimation + systemic / hematology / mean corpuscular (cell) volume (mcv) / mean …
[20] = systemic / in life observation / clinical signs / hyperactivity + systemic / in life observation / mortality / mortality + systemic / …
[21] = group: developmental, developmental / developmental malformation / bone / cervical + developmental / developmental malformation / bone / short supernumerary
[22] = group: maternal, systemic / in life observation / clinical signs / fur (altered appearance) + systemic / in life observation / clinical signs / salivation
[23] = group: maternal, systemic / in life observation / clinical signs / fur (altered appearance) + systemic / in life observation / clinical signs / salivation + …
[24] = systemic / organ weight / liver / relative to body weight
[25] = systemic / pathology microscopic / liver / hypertrophy
[26] = systemic / pathology microscopic / adrenal gland / hypertrophy + systemic / pathology microscopic / liver / hypertrophy + systemic / …
[27] = group: developmental, developmental / offspring survival late / viability index / viability index
[28] = group: maternal, reproductive / reproductive performance / resorptions / resorptions + systemic / in life observation / body weight / body weight + systemic…
[29] = systemic / organ weight / testes / nos + systemic / pathology microscopic / testes / atrophy
[30] = systemic / organ weight / testes / nos + systemic / pathology microscopic / testes / atrophy + systemic / in life observation / body weight…
[31] = systemic / pathology microscopic / liver / hypertrophy + systemic / clinical chemistry / alanine aminotransferase (alt/sgpt) / alanine …
[32] = group: offspring, systemic / in life observation / body weight / offspring (pup) weight gain
[33] = group: offspring, systemic / in life observation / body weight / offspring (pup) weight gain + developmental / offspring survival late / viability index / …
[34] = group: parental, systemic / organ weight / liver / nos + systemic / organ weight / liver / relative to body weight + systemic / in life observation / food …
[35] = group: parental, systemic / organ weight / liver / nos + systemic / organ weight / liver / relative to body weight + systemic / pathology microscopic / liver…
[36] = group: reproductive, reproductive / offspring survival early / birth index / live birth index
[37] = systemic / clinical chemistry / hepatic mixed function oxidase (mfo) assay / hepatic mixed function oxidase (mfo) assay
[38] = systemic / clinical chemistry / hepatic mixed function oxidase (mfo) assay / hepatic mixed function oxidase (mfo) assay + systemic / …
[39] = systemic / pathology microscopic / liver / hypertrophy + systemic / clinical chemistry / alkaline phosphatase (alp/alk) / alkaline …
[40] = systemic / clinical chemistry / alanine aminotransferase (alt/sgpt) / alanine aminotransferase (alt/sgpt)
[41] = systemic / pathology gross / stomach / discolored + systemic / pathology gross / stomach / foci + systemic / pathology gross / stomach / …
[42] = group: offspring, systemic / in life observation / body weight / offspring (pup) weight + systemic / pathology gross / heart / enlarged + systemic / pathology…
[43] = group: parental, systemic / in life observation / clinical signs / dental fluorosis
[44] = group: parental, systemic / in life observation / clinical signs / dental fluorosis + systemic / in life observation / clinical signs / teeth whitening

What does the source list for `C[N+](C)(C)Cc1ccccc1.[Cl-]` [Benzyltrimethylammonium chloride]?
LOAEL [1, 18]: > 100 mg/kg/day; NOAEL [1, 18]: ≥ 100 mg/kg/day; LEL [1, 19]: 12.5 mg/kg/day; NEL [1, 19]: < 12.5 mg/kg/day; LEL ([2]; systemic / clinical chemistry / protein / protein): 25 mg/kg/day; NEL ([2]; systemic / clinical chemistry / protein / protein + systemic / in life observation / mortality / mortality + systemic / organ weight / heart…): 12.5 mg/kg/day; LOAEL [2, 20]: > 100 mg/kg/day; NOAEL [2, 20]: ≥ 100 mg/kg/day

What does the source list for `CCCCC(C#N)(Cn1cncn1)c1ccc(Cl)cc1` (stereo not drawn) [Myclobutanil]?
LEL [3, 21]: 313 mg/kg/day; LOAEL [3, 21]: 313 mg/kg/day; NEL [3, 21]: 93.8 mg/kg/day; NOAEL [3, 21]: 93.8 mg/kg/day; LEL [3, 22]: 313 mg/kg/day; LOAEL [3, 22]: 313 mg/kg/day; NEL [3, 23]: 93.8 mg/kg/day; NOAEL [3, 23]: 93.8 mg/kg/day; LEL [4]: 394 mg/kg/day; LOAEL [4]: 394 mg/kg/day; NEL [4]: < 394 mg/kg/day; NOAEL [4]: < 394 mg/kg/day; LEL [5, 24]: 0.4 mg/kg/day; NEL [5, 24]: < 0.4 mg/kg/day; LOAEL [5, 25]: 14.3 mg/kg/day; NOAEL ([5]; systemic / pathology microscopic / liver / hypertrophy + systemic / organ weight / liver / relative to body weight + systemic / organ weight…): 3.09 mg/kg/day; LOAEL [6, 26]: 150 mg/kg/day; NEL [6, 26]: 45 mg/kg/day; NOAEL [6, 26]: 45 mg/kg/day; LEL ([6]; systemic / pathology microscopic / adrenal gland / hypertrophy + systemic / pathology microscopic / liver / necrosis + systemic / pathology …): 150 mg/kg/day; LEL [7, 27]: 200 mg/kg/day; LOAEL [7, 27]: 200 mg/kg/day; NEL [7, 27]: 60 mg/kg/day; NOAEL [7, 27]: 60 mg/kg/day; LEL [7, 28]: 200 mg/kg/day; LOAEL [7, 28]: 200 mg/kg/day; NEL [7, 28]: 60 mg/kg/day; NOAEL [7, 28]: 60 mg/kg/day; LEL [8]: 125 mg/kg/day; LOAEL [8]: > 125 mg/kg/day; NEL [8]: < 125 mg/kg/day; NOAEL [8]: ≥ 125 mg/kg/day; LEL [9, 29]: 9.84 mg/kg/day; LOAEL [9, 29]: 9.84 mg/kg/day; NEL [9, 30]: 2.49 mg/kg/day; NOAEL [9, 30]: 2.49 mg/kg/day; LOAEL [10, 25]: 14.3 mg/kg/day; NEL [10, 31]: 3.09 mg/kg/day; NOAEL [10, 31]: 3.09 mg/kg/day; LEL ([10]; systemic / pathology microscopic / liver / hypertrophy + systemic / hematology / mean corpuscular hemoglobin (mch) / mean corpuscular …): 14.3 mg/kg/day; NEL [11, 32]: 10 mg/kg/day; NOAEL [11, 32]: 10 mg/kg/day; LEL [11, 33]: 50 mg/kg/day; LOAEL [11, 33]: 50 mg/kg/day; NEL [11, 34]: 2.5 mg/kg/day; NOAEL [11, 34]: 2.5 mg/kg/day; LEL [11, 35]: 10 mg/kg/day; LOAEL [11, 35]: 10 mg/kg/day; LEL [11, 36]: 10 mg/kg/day; LOAEL [11, 36]: 50 mg/kg/day; NEL [11, 36]: 2.5 mg/kg/day; NOAEL [11, 36]: 10 mg/kg/day; LEL [12, 37]: 15 mg/kg/day; NEL [12, 37]: < 15 mg/kg/day; LOAEL ([12]; systemic / organ weight / kidney / nos + systemic / organ weight / liver / nos): 150 mg/kg/day; NOAEL ([12]; systemic / organ weight / kidney / nos + systemic / organ weight / liver / nos + systemic / clinical chemistry / albumin-globulin ratio / …): 50 mg/kg/day; LEL [13, 37]: 16.5 mg/kg/day; LOAEL [13, 37]: 16.5 mg/kg/day; NEL [13, 38]: 3.2 mg/kg/day; NOAEL [13, 38]: 3.2 mg/kg/day; LOAEL [14, 25]: 5 mg/kg/day; NEL [14, 39]: 0.25 mg/kg/day; NOAEL [14, 39]: 0.25 mg/kg/day; LEL ([14]; systemic / pathology microscopic / liver / hypertrophy + systemic / pathology microscopic / kidney / inflammation): 5 mg/kg/day

For `[F][Al-3]([F])([F])([F])([F])[F].[Na+].[Na+].[Na+]` [Cryolite], which LEL [15, 40] is on record?
Its LEL is 4.5 mg/kg/day.

What about the NEL [15, 40] of the same molecule?
The NEL was under 4.5 mg/kg/day.

What about the LOAEL [15, 41] of the same molecule?
The LOAEL was 399 mg/kg/day.

And the NOAEL [15, 41]?
The NOAEL was 3.8 mg/kg/day.

What about the LOAEL ([16]; group: offspring, systemic / in life observation / body weight / offspring (pup) weight) of the same molecule?
Its LOAEL is 128 mg/kg/day.

And the LEL [16, 42]?
Its LEL is 128 mg/kg/day.

What about the NEL [16, 42] of the same molecule?
The NEL was 42 mg/kg/day.

What about the NOAEL [16, 42] of the same molecule?
The NOAEL was 42 mg/kg/day.

What about the LOAEL [16, 43] of the same molecule?
Its LOAEL is 14 mg/kg/day.

And the NOAEL [16, 43]?
The NOAEL was under 14 mg/kg/day.

What about the LEL [16, 44] of the same molecule?
Its LEL is 14 mg/kg/day.

And the NEL [16, 44]?
Its NEL is under 14 mg/kg/day.

And the LEL [17]?
The LEL was 95 mg/kg/day.

What about the LOAEL [17] of the same molecule?
The LOAEL was 95 mg/kg/day.

What about the NEL [17] of the same molecule?
Its NEL is under 95 mg/kg/day.

And the NOAEL [17]?
Its NOAEL is under 95 mg/kg/day.
